These results are taken from PMC12637020, “Synthesis and biological evaluation of novel hydrazone derivatives for the treatment of Alzheimer's disease” (RSC Advances, 2025).

The IC50 is the concentration at which inhibition is half-maximal. In general, inhibition refers to the relative decrease from the control value, in per cent.

In experiment [1] the test system is NIH/3T3 mouse embryonic fibroblast cell line. The experiment in a line: MTT cytotoxicity test in NIH/3T3 cell line. Type of experiment: cell-based. The note with it: for Selectivity index: IC50 (NIH3T3)/IC50 (AChE); for IC50: Mus musculus, MTT, NIH3T3 fibroblast cells. Here is the method: The IC50 values of the compounds were determined by nonlinear regression analysis, allowing the cytotoxic properties of the compounds to be interpreted. The molecules D1f and D1c were active against AChE enzymes.
For cytotoxicity tests, the NIH/3T3 mouse embryonic fibroblast cell line (ATCC® CRL-1658TM, London, UK) was employed. The supplier's recommendation served as the basis for the NIH/3T3 cells' incubation time. In each well of the 96-well plates, […] NIH/3T3 cells were planted. The MTT assay was performed in compliance with the previously mentioned standards.[29,35]
A general note: Tetrazolium dyes change colour on reduction, which living cells bring about.

The target in another experiment is AChE enzyme (Homo sapiens, UniProt P22303). The experiment in a line: biochemical. The note with it: for inhibitory activity: at concentrations of 1000 and 100 µM; for inhibition at 1000 µM: read-out: AChE% inhibition 10^−3 M; for inhibition at 100 µM: read-out: AChE% inhibition 10^−4 M; for IC50: tested at 10 to 0.001 µM. In kind it is biochemical. The text has this:
(§1) The assay was completed in two steps.
(§2) The potential inhibitory effects of the obtained molecules on the AChE and BChE enzymes was examined using a variation of the Ellman method.[31,33,41–43] Distilled water from the Millipore/Milli-Q purification apparatus was utilized at every stage of the biological activity investigations during the evaluation process. In less than a week, all the solutions required for the biological investigation were meticulously prepared from scratch. A “BioTek-Precision Power (United States)” robotic pipetting system was utilized to distribute the prepared solutions and apply the test compounds and enzyme–substrate solutions to 96-well plates. The “BioTek-Synergy H1 Microplate Reader (United States)” was employed to establish and follow the enzyme protocol for spectrophotometric measurements. Solutions of the compounds were prepared at two different concentrations, 10^−3 M and 10^−4 M, using dimethylsulfoxide (DMSO) as 2% solution, and these were used in biological activity studies.

For the next experiment, the target named is BChE enzyme (Homo sapiens, UniProt P06276). The experiment in a line: biochemical. The note with it: for inhibition at 1000 µM: read-out: BChE% inhibition 10^−3 M; for inhibition at 100 µM: read-out: BChE% inhibition 10^−4 M.
Chain of BChE enzyme (P06276 29-602, species assumed): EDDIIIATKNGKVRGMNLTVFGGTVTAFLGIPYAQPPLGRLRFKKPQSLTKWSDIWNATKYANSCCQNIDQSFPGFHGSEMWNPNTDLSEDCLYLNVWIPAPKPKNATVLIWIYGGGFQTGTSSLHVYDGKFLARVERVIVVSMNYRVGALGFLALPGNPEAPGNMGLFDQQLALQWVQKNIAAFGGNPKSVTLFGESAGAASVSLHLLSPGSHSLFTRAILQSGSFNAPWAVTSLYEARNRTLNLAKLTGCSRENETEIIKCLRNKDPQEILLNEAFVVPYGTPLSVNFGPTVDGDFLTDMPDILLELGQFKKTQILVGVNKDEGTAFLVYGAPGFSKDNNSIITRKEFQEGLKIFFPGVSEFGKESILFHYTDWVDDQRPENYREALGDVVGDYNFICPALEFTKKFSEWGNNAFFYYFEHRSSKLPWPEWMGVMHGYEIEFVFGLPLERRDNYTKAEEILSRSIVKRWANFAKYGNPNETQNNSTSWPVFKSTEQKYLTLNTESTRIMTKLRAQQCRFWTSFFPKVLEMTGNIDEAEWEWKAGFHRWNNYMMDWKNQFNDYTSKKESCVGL
From the text: as §1, §2

Chain of AChE enzyme (P22303 32-614): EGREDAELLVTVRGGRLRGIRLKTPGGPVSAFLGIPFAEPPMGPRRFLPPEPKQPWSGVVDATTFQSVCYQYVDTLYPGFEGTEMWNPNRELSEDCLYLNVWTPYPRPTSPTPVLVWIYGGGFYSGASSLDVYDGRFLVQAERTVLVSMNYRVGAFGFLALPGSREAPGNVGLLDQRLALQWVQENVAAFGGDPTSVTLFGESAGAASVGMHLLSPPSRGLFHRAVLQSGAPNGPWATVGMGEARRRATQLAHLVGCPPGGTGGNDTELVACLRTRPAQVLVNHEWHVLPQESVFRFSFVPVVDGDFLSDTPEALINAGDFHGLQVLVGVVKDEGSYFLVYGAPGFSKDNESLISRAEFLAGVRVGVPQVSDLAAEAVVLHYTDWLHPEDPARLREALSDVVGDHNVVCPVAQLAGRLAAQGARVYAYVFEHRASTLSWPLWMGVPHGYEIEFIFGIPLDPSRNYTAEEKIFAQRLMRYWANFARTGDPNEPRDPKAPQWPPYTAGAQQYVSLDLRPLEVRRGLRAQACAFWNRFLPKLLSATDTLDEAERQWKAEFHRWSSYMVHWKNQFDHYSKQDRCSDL

In experiment [1], `CC(=NN=c1scc(-c2ccc([N+](=O)[O-])cc2)n1C)c1ccc(N2CCCCC2)cc1` [D1c, 3-Methyl-4-(4-nitrophenyl)-2-((1-(4-(piperidin-1-yl)phenyl)ethylidene)hydrazineylidene)-2,3-dihydrothiazole] returned a Selectivity index of 8.310 and a concentration for half-maximal inhibition (IC50) of 2.41 ± 0.109 µM. Also, at AChE enzyme, the inhibitory activity result is “more than 50%”, the inhibition at 1000 µM is 94.6 ± 2.35%, the inhibition at 100 µM was 90.3 ± 1.53% and the half-maximal inhibitory concentration (IC50) amounted to 0.29 ± 0.01 µM. Further, on BChE enzyme, the IC50 was more than 1000 µM, the inhibition at 1000 µM is 24.4 ± 0.941% and the inhibition at 100 µM was determined as 21.6 ± 0.852%.

In experiment [1], `CC(=NN=c1scc(-c2ccc(C#N)cc2)n1C)c1ccc(N2CCCCC2)cc1` [D1f, 4-(-3-Methyl-2-((1-(4-(piperidin-1-yl)phenyl)ethylidene)hydrazineylidene)-2,3-dihydrothiazol-4-yl)benzonitrile] gave a Selectivity index of 85.231 and a 50% inhibitory concentration (IC50) of 3.32 ± 0.155 µM. At AChE enzyme, the inhibitory activity result is given as “more than 50%”, the inhibition at 1000 µM stood at 96.8 ± 2.09%, the inhibition at 100 µM is 91.2 ± 2.43% and the half-inhibitory concentration (IC50) stood at 0.039 ± 0.001 µM. Further, at BChE enzyme, the concentration for half-maximal inhibition (IC50) is more than 1000 µM, the inhibition at 1000 µM came out at 29 ± 1.24% and the inhibition at 100 µM was 17 ± 0.784%.
